Earlier results, collected in US11154542B2, “Nail lacquer composition containing ciclopirox” (GENUONE SCIENCES INC., priority 2015, dated 2021).

Test system: fungus
Conditions: laboratory researches

## CCC(C)(C)c1ccc(CC(C)CN2C[C@@H](C)O[C@@H](C)C2)cc1 (some centres unmarked) [amorolfine, Amorolfine]
  antifungal activity: low antifungal activity
  formation of spores that resist antifungal agents: effective in reducing the formation of spores
